Drawing on patent US9862711B2, “Pyrazine derivatives as phosphatidylinositol 3-kinase inhibitors” (NOVARTIS AG, priority 2014, dated 2018), this text covers IC50 for nine compounds.

The structures appear in SMILES notation.

Chain of PI 3-kinase gamma (P48736 whole entry): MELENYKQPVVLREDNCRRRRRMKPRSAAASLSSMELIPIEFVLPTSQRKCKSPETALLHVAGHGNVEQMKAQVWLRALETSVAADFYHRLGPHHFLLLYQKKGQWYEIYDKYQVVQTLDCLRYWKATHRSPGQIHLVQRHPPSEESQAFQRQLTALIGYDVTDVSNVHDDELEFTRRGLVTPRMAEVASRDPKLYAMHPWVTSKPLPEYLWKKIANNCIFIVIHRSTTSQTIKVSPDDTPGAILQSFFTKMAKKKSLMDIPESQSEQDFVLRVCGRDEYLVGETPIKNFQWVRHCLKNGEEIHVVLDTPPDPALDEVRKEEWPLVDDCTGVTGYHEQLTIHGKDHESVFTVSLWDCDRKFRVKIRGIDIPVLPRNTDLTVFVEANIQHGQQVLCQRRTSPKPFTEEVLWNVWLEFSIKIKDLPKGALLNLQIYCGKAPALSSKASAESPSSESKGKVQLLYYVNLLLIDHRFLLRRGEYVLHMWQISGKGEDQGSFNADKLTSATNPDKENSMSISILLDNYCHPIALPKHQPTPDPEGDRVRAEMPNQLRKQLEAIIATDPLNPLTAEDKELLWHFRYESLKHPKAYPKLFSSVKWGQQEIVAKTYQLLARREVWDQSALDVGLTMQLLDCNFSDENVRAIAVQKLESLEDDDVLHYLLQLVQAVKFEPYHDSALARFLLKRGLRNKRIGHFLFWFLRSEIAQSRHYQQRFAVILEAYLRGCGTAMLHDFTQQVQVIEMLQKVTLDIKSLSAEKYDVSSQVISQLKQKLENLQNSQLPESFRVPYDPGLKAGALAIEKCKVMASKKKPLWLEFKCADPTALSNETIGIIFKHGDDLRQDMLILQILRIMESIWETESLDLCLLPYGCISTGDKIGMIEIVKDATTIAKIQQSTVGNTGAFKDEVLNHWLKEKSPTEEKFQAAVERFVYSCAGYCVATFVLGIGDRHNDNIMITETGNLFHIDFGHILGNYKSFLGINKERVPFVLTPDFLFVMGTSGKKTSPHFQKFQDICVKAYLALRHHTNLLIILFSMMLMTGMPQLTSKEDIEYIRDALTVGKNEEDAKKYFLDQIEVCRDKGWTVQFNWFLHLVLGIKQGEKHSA

The target in this experiment is PI 3-kinase gamma (Homo sapiens (Human), UniProt P48736). Put plainly: TR-FRET Adapta assay (Assay E). The class given is biochemical. Conditions: read-out: Assay E PI3Kγ IC50. From the text:
TR-FRET Adapta Assay for PI 3-Kinase Gamma (E), PI 3-Kinase Delta (F)
The TR-FRET Adapta™ Universal Kinase Assay Kit was purchased from Invitrogen Corporation (Carlsbad/CA, USA) (Cat. No. PV5099). The kit contains the following reagents: Adapta Eu-anti-ADP Antibody (Europium labeled anti-ADP antibody in HEPES buffered saline, Cat. No. PV5097), Alexa Fluor® 647-labeled ADP tracer (Alexa Fluor® 647-labeled ADP tracer in HEPES buffered saline, Cat. No. PV5098), TR-FRET dilution buffer pH 7.5 (Cat. No. PV3574). PIK3CD substrate phosphatidylinositol (PI) was obtained from Invitrogen (vesicules consisting of 2 mM phosphatidylinositol (PI) in 50 mM HEPES pH7.5; Cat. No. PV5371). PIK3CG substrate phosphatidylinositol-4,5-bisphosphate (PIP(4,5)2 was obtained from Invitrogen (PIP2:PS large unilamellar vesicules consisting of 1 mM PIP2: 19 mM PS in 50 mM HEPES pH7.5, 3 mM MgCl2, 1 mM EGTA; Cat. No. PV5100).
Time-Resolved Fluorescence Resonance Energy Transfer (TR-FRET) is a technology based on energy transfer between two adjacent dyes, from an excited electron in one dye (the donor) to an electron of an adjacent dye (the acceptor) through resonance, then released as a photon. This energy transfer is detected by an increase in the fluorescence emission of the acceptor, and a decrease in the fluorescence emission of the donor. TR-FRET assays for protein kinases use a long-lifetime lanthanide Terbium or Europium chelates as the donor species which overcome interference from compound autofluorescence or light scatter from precipitated compounds, by introducing a delay after excitation by a flashlamp excitation source. Results are often expressed as a ratio of the intensities of the acceptor and donor fluorophores. The ratiometric nature of such a value corrects for differences in assay volumes between wells, as well as corrects for quenching effects due to colored compounds. The Adapta™ assay can be divided into two phases: a kinase reaction phase and an ADP detection phase. In the kinase reaction phase, all kinase reaction components are added to the well and the reaction is allowed to incubate for a set period of time specific for each kinase. After the reaction, a detection solution of Eu-labeled anti-ADP antibody, Alexa Fluor® 647-labeled ADP tracer, and EDTA (to stop the kinase reaction) are added to the assay well. ADP formed by the kinase reaction will displace the Alexa Fluor® 647-labeled ADP tracer from the antibody, resulting in a decrease in TR-FRET signal. In the presence of an inhibitor, the amount of ADP formed by the kinase reaction is reduced, and the resulting intact antibodytracer interaction maintains a high TR-FRET signal. In the Adapta™ assay, the donor (Europium-anti-ADP antibody) is excited at 340 nm and will transfer its energy to the acceptor (Alexa Fluor® 647-labeled ADP tracer). The emission from the Alexa Fluor® 647 can be monitored with a filter centered at 665 nm because it is located between the emission peaks of the donor, which is measured at 615/620 nm. 50 nL of compound dilutions were dispensed onto white 384-well small volume polystyrene plate. Then 5 μL of either PI 3-kinase gamma or PI 3-kinase delta and lipid substrate (P1 or PIP2:PS) followed by 5 μL of ATP (final assay volume 10 μL) are incubated at RT. The standard reaction buffer for the Adapta™ TR-FRET assay contained 10 mM Tris-HCl pH 7.5, 3 mM MgCl2, 50 mM NaCl, 1 mM DTT, 0.05% CHAPS ((3-[(3-cholamidopropyl)dimethylammonio]-1-propanesulfonate). Reactions were stopped with 5 μL of a mixture of EDTA containing the Eu-labeled anti-ADP antibody and the Alexa Fluor® 647-labeled ADP tracer in TR-FRET dilution buffer. Plates are read 15 to 60 mins later in a Synergy2 reader using an integration time of 0.4 seconds and a delay of 0.05 seconds. Control for the 100% inhibition of the kinase reaction was performed by replacing the PI 3-kinase by the standard reaction buffer. […]
For `Cc1ccc(S(=O)(=O)NCC2(C)COC2)cc1-c1cncc(-c2cn(C)nc2C)n1` [Example 4, Trans 3-[6-(1,3-Dimethyl-1H-pyrazol-4-yl)-pyrazin-2-yl]-4-methyl-N-(3-methyl-oxetan-3-ylmethyl)-benzenesulfonamide], the concentration for half-maximal inhibition (IC50) worked out at 14 nM.

Turning to `Cc1ccc(S(=O)(=O)NCCC(C)(C)O)cc1-c1cncc(-c2cn(CCN3CCOCC3)nc2C)n1` [Example 10, N-(3-Hydroxy-3-methyl-butyl)-4-methyl-3-{6-[3-methyl-1-(2-morpholin-4-yl-ethyl)-1H-pyrazol-4-yl]-pyrazin-2-yl}-benzenesulfonamide], the IC50 was found to be 27 nM.

Take `Cc1ccc(S(=O)(=O)N[C@H]2CC[C@H](O)CC2)cc1-c1cncc(-c2cccnc2)n1` [Example 11, Trans N-(4-Hydroxy-cyclohexyl)-4-methyl-3-(6-pyridin-3-yl-pyrazin-2-yl)-benzenesulfonamide]: the concentration for half-maximal inhibition (IC50) was 88 nM.

Take `Cc1ccc(S(=O)(=O)NCCC(C)(C)O)cc1-c1cncc(-c2cn(C)nc2C)n1` [Example 3, 3-[6-(1,3-Dimethyl-1H-pyrazol-4-yl)-pyrazin-2-yl]-N-(3-hydroxy-3-methyl-butyl)-4-methyl-benzenesulfonamide]: the IC50 stood at 48 nM.

For the compound `Cc1ncc(-c2cncc(-c3cc(S(=O)(=O)NCCCO)ccc3C)n2)s1` [Example 1, N-(3-Hydroxy-propyl)-4-methyl-3-[6-(2-methyl-thiazol-5-yl)-pyrazin-2-yl]-benzenesulfonamide], the IC50 came out at 22 nM.

On to `Cc1ccc(S(=O)(=O)NCC(C)(C)CO)cc1-c1cncc(-c2cn(C)nc2C)n1` [Example 8, 3-[6-(1,3-Dimethyl-1H-pyrazol-4-yl)-pyrazin-2-yl]-N-(3-hydroxy-2,2-dimethyl-propyl)-4-methyl-benzenesulfonamide], for which the IC50 was determined as 20 nM.

For the compound `Cc1ncc(-c2cncc(-c3cc(S(=O)(=O)N[C@H]4CC[C@H](O)CC4)ccc3C)n2)s1` [Example 5, Trans N-(4-Hydroxycyclohexyl)-4-methyl-3-(6-(2-methylthiazol-5-yl)pyrazin-2-yl)benzenesulfonamide], the IC50 was found to be 15 nM.

In the case of `Cc1ccc(S(=O)(=O)NCC(C)(C)O)cc1-c1cncc(-c2cn(C)nc2C)n1` [Example 2, 3-[6-(1,3-Dimethyl-1H-pyrazol-4-yl)-pyrazin-2-yl]-N-(2-hydroxy-2-methyl-propyl)-4-methyl-benzenesulfonamide], the IC50 worked out at 19 nM.

Take `Cc1ccc(S(=O)(=O)NCCC(C)(C)O)cc1-c1cncc(-c2cnn(CCN3CCOCC3)c2)n1` [Example 9, N-(3-Hydroxy-3-methyl-butyl)-4-methyl-3-{6-[1-(2-morpholin-4-yl-ethyl)-1H-pyrazol-4-yl]-pyrazin-2-yl}-benzenesulfonamide]: the IC50 is 160 nM.
